Experimental data taken from PubChem BioAssay AID330 (DTP/NCI, 2004).
Several values for one entry are separate records, joined by “and”; a condition that tells them apart may be missing. Equal entries are not always repeated. Toxic doses and inconclusive results are not listed. The calls were made as follows: active = survival T/C of 150% or more; inactive = T/C below 125% in these data.

Test system: P388 leukemia ip, CD2F1 mice, survival T/C
Test: NCI In Vivo Anticancer Drug Screen. Data for tumor model P388 Leukemia (intraperitoneal) in CD2F1 (CDF1) mice
Details: endpoint: median survival time, higher = longer survival
Outline: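 Mice carrying the transplanted tumor received test compound or vehicle. Survival was recorded in each group, and the value is the treated-group measurement divided by that of the vehicle-treated control group.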

[1] = dose: 50.0 mg/kg/injection, schedule: Q01DX005 (ip), vehicle: saline with Tween-80
[2] = dose: 100.0 mg/kg/injection, schedule: Q01DX005 (ip), vehicle: saline with Tween-80
[3] = dose: 200.0 mg/kg/injection, schedule: Q01DX005 (ip), vehicle: saline with Tween-80
[4] = dose: 50.0 mg/kg/injection, schedule: Q01DX009 (ip), vehicle: Klucel (hydroxypropylcellulose) (HPC)
[5] = dose: 100.0 mg/kg/injection, schedule: Q01DX009 (ip), vehicle: Klucel (hydroxypropylcellulose) (HPC)
[6] = dose: 200.0 mg/kg/injection, schedule: Q01DX009 (ip), vehicle: Klucel (hydroxypropylcellulose) (HPC)
[7] = dose: 50.0 mg/kg/injection, schedule: Q01DX009 (ip), vehicle: saline
[8] = dose: 100.0 mg/kg/injection, schedule: Q01DX009 (ip), vehicle: saline
[9] = dose: 200.0 mg/kg/injection, schedule: Q01DX009 (ip), vehicle: saline
[10] = dose: 100.0 mg/kg/injection, schedule: Q01DX009 (ip), vehicle: saline with Tween-80
[11] = dose: 400.0 mg/kg/injection, schedule: Q01DX009 (ip), vehicle: saline with Tween-80
[12] = dose: 50.0 mg/kg/injection, schedule: Q01DX009 (ip), vehicle: saline with Tween-80
[13] = dose: 12.5 mg/kg/injection, schedule: Q01DX009 (ip), vehicle: saline with Tween-80
[14] = dose: 25.0 mg/kg/injection, schedule: Q01DX009 (ip), vehicle: saline with Tween-80
[15] = dose: 60.0 mg/kg/injection, schedule: Q01DX005 (ip), vehicle: Klucel (hydroxypropylcellulose) (HPC)
[16] = dose: 120.0 mg/kg/injection, schedule: Q01DX005 (ip), vehicle: Klucel (hydroxypropylcellulose) (HPC)
[17] = dose: 60.0 mg/kg/injection, schedule: Q01DX005 (ip), vehicle: saline with Tween-80
[18] = dose: 120.0 mg/kg/injection, schedule: Q01DX005 (ip), vehicle: saline with Tween-80
[19] = dose: 25.0 mg/kg/injection, schedule: Q01DX009 (ip), vehicle: saline

Measured: T/C

Nc1snnc1C(=S)NC=S
inactive: dose: 100.0 mg/kg/injection, schedule: Q01DX001 (ip), vehicle: saline 102 % of control | dose: 200.0 mg/kg/injection, schedule: Q01DX001 (ip), vehicle: saline 105 % of control | dose: 400.0 mg/kg/injection, schedule: Q01DX001 (ip), vehicle: saline 100 % of control

CC(=O)NN=Nc1ccc(C)cc1
inactive: dose: 50.0 mg/kg/injection, schedule: Q01DX005 (ip), vehicle: Klucel (hydroxypropylcellulose) (HPC) 105 % of control | dose: 100.0 mg/kg/injection, schedule: Q01DX005 (ip), vehicle: Klucel (hydroxypropylcellulose) (HPC) 102 % of control

CS/C(=N\N=C(/C)c1ccccn1)N/N=C(\SC)N(C)c1ccccc1
inactive: [1] 108 % of control | [2] 104 % of control | [3] 110 % of control

CCOC(=O)CC(Cc1cc(OC)ccc1OC)(C(C)=O)C(C)=O
inactive: dose: 25.0 mg/kg/injection, schedule: Q01DX009 (ip), vehicle: other 100 % of control | dose: 50.0 mg/kg/injection, schedule: Q01DX009 (ip), vehicle: other 100 % of control | dose: 100.0 mg/kg/injection, schedule: Q01DX009 (ip), vehicle: other 100 % of control | dose: 200.0 mg/kg/injection, schedule: Q01DX009 (ip), vehicle: other 98 % of control | dose: 400.0 mg/kg/injection, schedule: Q01DX009 (ip), vehicle: other 100 % of control

ClCCN(CCN(CCCl)c1ccc2ccccc2c1)c1ccc2ccccc2c1
inactive: [4] 109 % of control | [5] 112 % of control | [6] 107 % of control

O=C(O)c1ccc(Cc2ccc(C(=O)O)cc2)cc1 (tested in a mixture with another compound)
inactive: [7] 95 % of control | [8] 99 % of control | [9] 104 % of control

COC(=O)c1cccc2c1OCO2
inactive: [10] 100 % of control | dose: 200.0 mg/kg/injection, schedule: Q01DX009 (ip), vehicle: saline with Tween-80 100 % of control | [11] 100 % of control

c1cc2c3c(c1)c1cc4c(cc1c[n+]3CCC2)OCO4
inactive: dose: 3.13 mg/kg/injection, schedule: Q01DX009 (ip), vehicle: water 110 % of control | dose: 25.0 mg/kg/injection, schedule: Q01DX009 (ip), vehicle: water 119 % of control and 120 % of control

CN1C(=O)C(=Cc2ccc(O)cc2)C(=O)N(C)C1=O
inactive: [12] 112 % of control and 113 % of control | [10] 118 % of control and 123 % of control | [11] 86 % of control

O=c1[nH]c2cc3c(cc2n2cccc12)oc1ccccc13
inactive: dose: 25.0 mg/kg/injection, schedule: Q01DX005 (ip), vehicle: saline with Tween-80 98 % of control | [1] 100 % of control | [2] 100 % of control | [3] 100 % of control

C(=C\c1ccncc1)/c1ccncc1
inactive: [13] 90 % of control | [14] 90 % of control | [12] 101 % of control | [5] 89 % of control | [10] 107 % of control | [6] 92 % of control

CN1/C(=C/C2=C([O-])C(=C/C3=[N+](C)c4ccccc4C3(C)C)/C2=O)C(C)(C)c2ccccc21
inactive: [15] 91 % of control | [16] 87 % of control

CN(C)C1C(=O)C(C(N)=O)=C(O)C2(O)C(=O)C3=C(O)c4c(O)cccc4C(C)(O)C3C(O)C12.[Cl][Sb]([Cl])[Cl] (centres undefined)
inactive: [1] 113 % of control | [2] 99 % of control

CCC(=NCCCCCCN=C(CC)c1cc(O)ccc1O)c1cc(O)ccc1O.[Fe]
inactive: [1] 88 % of control | [2] 89 % of control | [3] 91 % of control

CCCCCCCCCCCCCCCCSc1ccncc1NN=O
inactive: dose: 3.12 mg/kg/injection, schedule: Q01DX009 (ip), vehicle: saline with Tween-80 99 % of control | dose: 6.25 mg/kg/injection, schedule: Q01DX009 (ip), vehicle: saline with Tween-80 106 % of control | [13] 101 % of control | [14] 105 % of control | [12] 99 % of control and 100 % of control | [10] 113 % of control

CCCCNC(=O)C(c1ccccc1)c1ccccc1
inactive: [4] 99 % of control | [5] 106 % of control | [6] 100 % of control

O=C(/C=C/c1ccc([N+](=O)[O-])cc1)Cc1ccccc1
inactive: dose: 100.0 mg/kg/injection, schedule: Q04DX002 (ip), vehicle: saline 97 % of control | dose: 200.0 mg/kg/injection, schedule: Q04DX002 (ip), vehicle: saline 104 % of control | dose: 400.0 mg/kg/injection, schedule: Q04DX002 (ip), vehicle: saline 100 % of control

Nc1ccc2c(SCCCCSc3c4ccccc4nc4cc(N)ccc34)c3ccccc3nc2c1
inactive: [17] 106 % of control | [18] 100 % of control

OC1(c2nccc3ccccc23)CCN(CCc2ccccc2)CC1
inactive: dose: 12.5 mg/kg/injection, schedule: Q01DX009 (ip), vehicle: saline 102 % of control | [19] 97 % of control | [12] 87 % of control | [7] 108 % of control

O=C(CNC(=O)c1ccccc1)Nc1ccccc1
inactive: [19] 115 % of control | [7] 103 % of control | [8] 94 % of control | [9] 104 % of control

Cc1c(Cl)cccc1NC(=O)/C(Cl)=C1/Sc2ccccc2NC1=O
inactive: [17] 96 % of control | [18] 93 % of control | dose: 240.0 mg/kg/injection, schedule: Q01DX005 (ip), vehicle: saline with Tween-80 91 % of control

CC(=O)Nc1cccc(/C(C)=N/NC(N)=O)c1
inactive: [1] 91 % of control | [2] 91 % of control | [3] 89 % of control

COc1ccc(C2c3cc4c(cc3OC(O)C2C)OCO4)cc1 (centres undefined)
inactive: [15] 106 % of control | [16] 100 % of control | dose: 240.0 mg/kg/injection, schedule: Q01DX005 (ip), vehicle: Klucel (hydroxypropylcellulose) (HPC) 101 % of control

COc1ccc(OC)c(C(/C=N/O)OC)c1 (centres undefined)
inactive: dose: 25.0 mg/kg/injection, schedule: Q04DX003 (ip), vehicle: saline with Tween-80 98 % of control and 100 % of control | dose: 50.0 mg/kg/injection, schedule: Q04DX003 (ip), vehicle: saline with Tween-80 98 % of control and 94 % of control | dose: 100.0 mg/kg/injection, schedule: Q04DX003 (ip), vehicle: saline with Tween-80 99 % of control and 87 % of control | dose: 200.0 mg/kg/injection, schedule: Q04DX003 (ip), vehicle: saline with Tween-80 103 % of control and 94 % of control | dose: 400.0 mg/kg/injection, schedule: Q04DX003 (ip), vehicle: saline with Tween-80 99 % of control

C[S+](C)c1ccccc1NC(C)(C)C
inactive: dose: 6.25 mg/kg/injection, schedule: Q01DX009 (ip), vehicle: saline + alcohol 99 % of control | dose: 12.5 mg/kg/injection, schedule: Q01DX009 (ip), vehicle: saline + alcohol 100 % of control | dose: 25.0 mg/kg/injection, schedule: Q01DX009 (ip), vehicle: saline + alcohol 96 % of control | [19] 101 % of control
